Measured values as given in patent US11351151B2, “Compound having anticancer activity and preparation method and application” (3D Medicines (Beijing) Co., Ltd., priority 2016, dated 2022).
“And” between values parts separate entries of the source, which are not always exact repeats. Equal entries are not always repeated. “Also recorded” adds a separate entry of the source.

Tests used:
[1] = Plasma incubation stability study; assay type: in vitro ADME, SD rat; details: for Residual intermediate: rat plasma, 37° C., 2 μg/mL added, listed as intermediate
Experimental: (§1) The purpose of this example was to investigate the stability of the precursor Linifanib-C12-AA5 (compound 8) and the intermediate Linifanib-C12-Asp (compound 12) in plasma, liver homogenate and spleen homogenate (precursor Linifanib-C12-AA5 metabolizes into the intermediates Linifanib-C12-Asp and Linifanib; the intermediate Linifanib-C12-Asp is further metabolized to form Linifanib), and the metabolites were analyzed quantitatively, and the stability of the incubation system was verified with positive drugs, providing references for compound drug evaluation.
• Instrument: AP13000 LC/MS, ABI • Materials: Male SD rats (200-250 g), Beijing Vital River • Test samples: positive drugs and their metabolites M1 and M2, Linifanib-C12-AA5 and its metabolites Linifanib-C12-ASP and Linifanib. 2. Stability study of Linifanib-C12-AA5 and Linifanib-C12-Asp • 2.1 Linifanib-C12-AA5 and Linifanib-C12-Asp plasma incubation stability study protocol Test animal • Type: SD rat; Quantity: 2 • Sex: male; weight: 200-250 g;
(§2) Experimental Procedure • 1. Animal blood was collected, blood samples were placed in EDTA anticoagulation tubes, centrifuged at 3000 g for 15 min at 4° C., plasma was separated, and 2 blood samples were mixed in equal volumes; • 2. Weighed and dissolved a certain amount of Linifanib-C12-AA5/Linifanib-C12-Asp in DMSO:MeOH (2:8), prepared 200 μM mother liquor by purity, and added the compound to the plasma to a final concentration of 2 μg/mL. The organic ratio in the system was not more than 0.5%. • 3. Incubated in a 37° C. water bath and set the sampling points to 0, 0.5, 1, 2, 4, 6, and 8 h. At each sampling point, 100 μL of each sample was added to 300 μL of acetonitrile (with internal standard) for precipitation, centrifuged at 12,000 rpm for 5 min, and 200 μL of supernatant was taken for analysis by LC-MS/MS. • 4. Configured the standard curve to quantify Linifanib, Linifanib-C12-Asp and residual Linifanib-C12-AA5. • 2.2 Linifanib-C12-AA5 and Linifanib-C12-Asp liver/spleen homogenate incubation stability study protocol Test animal • Type: SD rat; Quantity: 2 • Sex: Male; Weight: 200-250 g

[2] = tested on: 26 liver cancer cell lines; test: Cell proliferation assay (Alamar Blue), summary over liver cancer lines; assay type: cell-based
Experimental: 1. Instruments and Materials • Thermo 311 CO2 incubator; Haier biosafety cabinet; Molecular Devices microplate reader; Xiangyi brand L530 desktop low speed centrifuge; Olympus IX51 inverted fluorescence microscope, DMEM, RPMI 1640, MEM, DMEM/F12 1:1 medium, Fetal bovine serum, 0.25% trypsin solution, phosphate buffer (Thermo Fisher Shanghai Co., Ltd.); sigma dimethyl sulfoxide (DMSO), resazurin; 54 commercial tumor cell lines (including 26 liver cancer cell lines). Experimental drugs: compounds 1-12 and active drug Linifanib; chemotherapeutic drug Doxorubicin (HY-15142; Shanghai Qianyuan Biomedical Technology Co., Ltd.).
2. […] The proportion and quantity of passage were determined by experimental needs. The ratio of subculture of this cell line was generally 1:2^˜1:3. • 2.2 inhibition effect on the proliferation of different tumor cell lines • Cell test: 54 cell lines in logarithmic growth phase were inoculated in 96-well culture plates at 500^˜1×10^4/well (the optimal seeding density of each cell line was determined in pre-experiment), After incubating at 37° C. for 4 h in a 5% CO2 humidification incubator, added 10 μL of compounds 1-12 or Linifanib to each well, and tested 9 drug concentration gradients for each compound (diluted from the highest concentration of the test by 3.16 times). […]

[3] = Spleen homogenate incubation stability study; assay type: in vitro ADME, SD rat
Experimental: as §1, §2
Experimental Procedure • 1. Biological analysis method: established the biological analysis method of the compound Linifanib-C12-Asp and Linifanib; • 2. Rat liver/spleen was taken on the day of the experiment, two pieces were cut and mixed, and homogenized with 4 volumes (1 g: 4 mL) phosphate buffer (pH 7.4), and the temperature was controlled to not exceed 10° C. in the homogenization process; quantitative detection of protein, and controlled liver and spleen protein concentration. • 3. Added the drug Linifanib-C12-AA5, Linifanib-C12-Asp to the liver/spleen homogenate to a concentration of 1000 ng/mL, the incubation volume was 1 mL, and controlled the concentration of the organic solvent in the incubation system to not exceed 0.5%. • 4. Incubated in a 37° C. water bath and took 100 μL of samples at 0, 0.5, 1, 2, 4, 6, and 8 h, respectively. After pre-processing the samples with a definite method, the LC-MS/MS analysis was carried out. • 5. Prepared a standard curve with blank liver/spleen homogenate to quantify Linifanib-C12-Asp and Linifanib. 3. Stability Study Results

[4] = liver cancer patients, phase III; cited from earlier work
[5] = rat plasma incubation up to 8 h

In the case of `Cc1ccc(F)c(NC(=O)Nc2ccc(-c3cccc4c3c(N)nn4C(=O)CCCCCCCCCCCNC(=O)C[C@H](N)C(=O)N[C@@H](CCC(=O)N[C@@H](CCC(=O)N[C@@H](CCC(=O)N[C@@H](CCC(=O)O)C(=O)O)C(=O)O)C(=O)O)C(=O)O)cc2)c1` [Compound 8], the “production of the intermediates Linifanib-C12-Asp and Linifanib in plasma” value [1, 5] is reported as “did not produce”, the stability in plasma [1, 5] is reported as “stable in plasma” and the “difference of IC50 values versus Linifanib” value ([2]; most of the liver cancer cell lines (15/26, 58%)) is reported as “more than 8 times”.
In the case of `Cc1ccc(F)c(NC(=O)Nc2ccc(-c3cccc4c3c(N)nn4C(=O)CCCCCCCCCCCNC(=O)C[C@H](N)C(=O)O)cc2)c1` [Compound 12], the “level of Linifanib produced in plasma” value [1, 5] is reported as “close to zero”, the stability in plasma ([1]; rat plasma incubation up to 8 h, listed as Linifanib-C12-Asp) is reported as “stably incubated in plasma; also recorded: stable in plasma” and the Residual intermediate ([1]; 0 h) is reported as 1900 ng/mL and 2180 ng/mL. The Residual intermediate ([1]; 0.5 h) was 2100 ng/mL and 2290 ng/mL, the Residual intermediate ([1]; 1 h) was 2180 ng/mL and 2290 ng/mL and the Residual intermediate ([1]; 2 h) was 2160 ng/mL and 2110 ng/mL. For the same compound, the Residual intermediate ([1]; 4 h) was 2210 ng/mL and 2270 ng/mL, the Residual intermediate ([1]; 6 h) was 2070 ng/mL and 1880 ng/mL and the Residual intermediate ([1]; 8 h) was 1940 ng/mL and 2060 ng/mL. For the same compound, the Residual intermediate ([3]; first experiment, 1000 ng/mL added, 0 h, listed as intermediate) was 900 ng/mL and 1020 ng/mL, the Residual intermediate ([3]; first experiment, 1000 ng/mL added, 0.5 h) was 959 ng/mL and the Residual intermediate ([3]; first experiment, 1000 ng/mL added, 2 h, listed as intermediate) was 755 ng/mL and 681 ng/mL. The Residual intermediate ([3]; first experiment, 1000 ng/mL added, 4 h, listed as intermediate) was 610 ng/mL and 589 ng/mL, the Residual intermediate ([3]; first experiment, 1000 ng/mL added, 6 h, listed as intermediate) was 470 ng/mL and 467 ng/mL and the Residual intermediate ([3]; first experiment, 1000 ng/mL added, 8 h, listed as intermediate) was 499 ng/mL and 506 ng/mL. For the same compound, the Residual intermediate ([3]; second experiment, 0 h, listed as intermediate) was 812 ng/mL and 844 ng/mL, the Residual intermediate ([3]; second experiment, 0.5 h, listed as intermediate) was 770 ng/mL and 744 ng/mL and the Residual intermediate ([3]; second experiment, 6 h, listed as intermediate) was 496 ng/mL and 483 ng/mL.
For `Cc1ccc(F)c(NC(=O)Nc2ccc(-c3cccc4[nH]nc(N)c34)cc2)c1` [Linifanib, reference compound], the “toxicity and side effects” value [4] is listed as “greater than Sorafenib” and the IC50 ([2]; nearly half of the liver cancer cell lines (12/26, 46%), moderately sensitive) is listed as under 5 µM.
